Format in all cases: cell-based
One assay deals with T1, A2B receptors (Homo sapiens, UniProt P29275).
T1 sequence (P29275 1-332): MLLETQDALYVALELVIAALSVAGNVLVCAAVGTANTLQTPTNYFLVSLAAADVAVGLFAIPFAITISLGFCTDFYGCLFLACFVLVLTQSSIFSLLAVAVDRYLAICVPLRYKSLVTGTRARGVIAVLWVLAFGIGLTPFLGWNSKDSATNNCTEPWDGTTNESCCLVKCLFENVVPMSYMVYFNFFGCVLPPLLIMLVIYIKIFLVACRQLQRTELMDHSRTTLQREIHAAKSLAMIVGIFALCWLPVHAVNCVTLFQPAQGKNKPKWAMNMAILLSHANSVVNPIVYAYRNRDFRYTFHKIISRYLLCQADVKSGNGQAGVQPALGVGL
In words: cAMP HTRF functional assay, recombinant HEK293 cells expressing human A2B receptor, agonist NECA. More on the design: expressed in transfected cells; host or cells: HEK293. The procedure: (§1) The functional activities of human A2A, A2B, A1 and A3 receptors were determined by quantification of cAMP, being the second messenger for adenosine receptors.
(§2) Obtained raw data were normalized against the inhibitor control and the neural control (DMSO) and the normalized data were fitted using GeneData software.

The next assay has as its target T2, human A2A receptor (Homo sapiens, UniProt P29274).
T2 construct: expressed in transfected cells; host or cells: HEK293
Kind of assay: cAMP HTRF functional assay, recombinant HEK293 cells expressing human A2A receptor, agonist NECA. As to the method: as §1, §2

The target in the next assay is T3, human A1 receptor (Homo sapiens, UniProt P30542).
T3 construct: expressed in transfected cells; host or cells: CHO
T3 sequence (P30542 1-326): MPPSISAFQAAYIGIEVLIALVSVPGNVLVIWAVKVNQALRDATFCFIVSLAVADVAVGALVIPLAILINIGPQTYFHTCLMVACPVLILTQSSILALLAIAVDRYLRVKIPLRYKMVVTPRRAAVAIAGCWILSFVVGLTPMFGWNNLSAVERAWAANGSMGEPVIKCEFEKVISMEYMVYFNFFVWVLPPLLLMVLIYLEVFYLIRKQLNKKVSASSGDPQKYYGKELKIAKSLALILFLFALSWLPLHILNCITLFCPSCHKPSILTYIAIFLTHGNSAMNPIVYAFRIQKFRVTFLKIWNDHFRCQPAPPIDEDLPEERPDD
Kind of assay: cAMP HTRF functional assay, recombinant CHO cells expressing human A1 receptor, forskolin and agonist CPA. As to the method: as §1
For human A1 and A3 receptors, recombinant CHO cells, expressing either A1 or A3-receptor, were used. As both receptors couple to Gi proteins, the assay protocol was adapted:
Cells were seeded into 384-well plates, forskolin, test compounds and agonists (CPA for A1- and IB-MECA for A3-receptor) were added. After 30 min incubation, HTRF reagents (cAMP dynamic 2, Cis Bio) were added and the cellular cAMP levels were determined using the ENVISION (Perkin Elmer) plate reader.
as §2

Molecules are shown by their SMILES. A value given as a limit tells only on which side of the number the result lay.

T2 sequence (P29274 whole entry): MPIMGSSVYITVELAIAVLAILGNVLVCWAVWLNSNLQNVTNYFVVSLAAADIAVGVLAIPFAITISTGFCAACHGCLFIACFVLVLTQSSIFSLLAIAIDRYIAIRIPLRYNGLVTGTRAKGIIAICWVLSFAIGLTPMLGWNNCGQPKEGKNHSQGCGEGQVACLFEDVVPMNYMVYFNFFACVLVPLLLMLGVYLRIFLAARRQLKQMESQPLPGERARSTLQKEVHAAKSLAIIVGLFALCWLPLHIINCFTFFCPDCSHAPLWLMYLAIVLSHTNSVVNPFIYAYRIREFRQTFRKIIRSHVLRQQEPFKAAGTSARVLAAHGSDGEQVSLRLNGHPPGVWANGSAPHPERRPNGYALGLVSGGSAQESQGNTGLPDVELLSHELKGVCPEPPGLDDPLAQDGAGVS

As to `C#CCC1(O)CCN(C(=O)Nc2cnc3c(C4CCOCC4)cnc(OC)c3n2)CC1` [compound 103, 4-Hydroxy-4-prop-2-ynyl-piperidine-1-carboxylic acid [5-methoxy-8-(tetrahydro-pyran-4-yl)-pyrido[3,4-b]pyrazin-3-yl]-amide], the IC50 at A2B receptors was over 1000 nM; on human A2A receptor it was under 10 nM; at human A1 receptor, over 1000 nM.
Take `COCCOc1cccc(-c2ccc(OC)c3nc(NC(=O)N4CCC(C)(O)CC4)cnc23)c1` [compound 117, 4-hydroxy-N-{8-methoxy-5-[3-(2-methoxyethoxy)phenyl]quinoxalin-2-yl}-4-methylpiperidine-1-carboxamide]: the values for the IC50 on A2B receptors, on human A2A receptor and at human A1 receptor were over 1000 nM, under 100 nM and over 1000 nM, respectively.
Consider `COc1ccc(C2=CCOCC2)c2ncc(NC(=O)c3csc(N)n3)nc12` [compound 139, 2-amino-N-[5-(3,6-dihydro-2H-pyran-4-yl)-8-methoxyquinoxalin-2-yl]-1,3-thiazole-4-carboxamide], for which the IC50 at A2B receptors was over 1000 nM; on human A2A receptor, under 100 nM; on human A1 receptor it was over 1000 nM.
For the compound `COc1ccc(-c2ccccc2F)c2ncc(NC(=O)c3cnc(C)o3)nc12` [compound 129, N-[5-(2-fluorophenyl)-8-methoxyquinoxalin-2-yl]-2-methyl-1,3-oxazole-5-carboxamide], the IC50 at A2B receptors was under 100 nM; on human A2A receptor, under 10 nM.
For `COCCOCCn1cc(-c2ccc(OC)c3nc(NC(=O)N4CCC(C)(O)CC4)cnc23)cn1` [compound 119, 4-hydroxy-N-(8-methoxy-5-{1-[2-(2-methoxyethoxy)ethyl]-1H-pyrazol-4-yl}quinoxalin-2-yl)-4-methylpiperidine-1-carboxamide], the IC50 at A2B receptors was over 1000 nM; on human A2A receptor it was under 100 nM; on human A1 receptor, over 1000 nM.
`CCOC(=O)c1nnc(NC(=O)Nc2cnc3c(C4=CCOCC4)ccc(OC)c3n2)s1` [compound 143, ethyl 5-({[5-(3,6-dihydro-2H-pyran-4-yl)-8-methoxyquinoxalin-2-yl]carbamoyl}amino)-1,3,4-thiadiazole-2-carboxylate]: the IC50 at A2B receptors was over 1000 nM; at human A2A receptor, under 100 nM; at human A1 receptor it was over 1000 nM.
Consider `COc1ccc(C2CCOCC2)c2ncc(NC(=O)c3cnc(C)o3)nc12` [compound 130, N-[8-methoxy-5-(oxan-4-yl)quinoxalin-2-yl]-2-methyl-1,3-oxazole-5-carboxamide], for which the IC50 is under 100 nM on A2B receptors, under 10 nM at human A2A receptor and over 1000 nM at human A1 receptor.
For `COc1ccc(C2=CCOCC2)c2ncc(NC(=O)c3coc(CN)c3)nc12` [compound 142, 5-(aminomethyl)-N-[5-(3,6-dihydro-2H-pyran-4-yl)-8-methoxyquinoxalin-2-yl]furan-3-carboxamide] the same measures were over 1000 nM, under 10 nM and over 1000 nM.
Take `COc1ccc(C2CCOCC2)c2ncc(NC(=O)c3cnc(C)s3)nc12` [compound 78]: the IC50 on A2B receptors is under 1000 nM; at human A2A receptor, under 10 nM; at human A1 receptor, over 1000 nM.
For `COc1ccc(C2=CCOCC2)c2ncc(NC(=O)N3CCC(C)(O)CC3)nc12` [compound 109, N-[5-(3,6-dihydro-2H-pyran-4-yl)-8-methoxyquinoxalin-2-yl]-4-hydroxy-4-methylpiperidine-1-carboxamide], the results for the IC50 on A2B receptors, on human A2A receptor and on human A1 receptor were over 1000 nM, under 10 nM and under 1000 nM, respectively.
For `COc1ccc(-c2cnn(Cc3ccccn3)c2)c2ncc(NC(=O)N3CCC(C)(O)CC3)nc12` [compound 114, 4-hydroxy-N-(8-methoxy-5-{1-[(pyridin-2-yl)methyl]-1H-pyrazol-4-yl}quinoxalin-2-yl)-4-methylpiperidine-1-carboxamide] the same measures were over 1000 nM, under 100 nM and under 1000 nM.
For `COc1ccc(C2CCOCC2)c2ncc(NC(=O)c3cnn(C)c3)nc12` [compound 68], in that order: over 1000 nM, under 10 nM and over 1000 nM.
For `CCCCc1ccc(OC)c2nc(NC(=O)N3CCC(C)(O)CC3)cnc12` [compound 108, N-(5-butyl-8-methoxyquinoxalin-2-yl)-4-hydroxy-4-methylpiperidine-1-carboxamide] the same measures were over 1000 nM, under 100 nM and over 1000 nM.
As to `COc1ccc(C2=CCOCC2)c2ncc(NC(=O)c3cnc[nH]3)nc12` [compound 159, N-[5-(3,6-dihydro-2H-pyran-4-yl)-8-methoxyquinoxalin-2-yl]-1H-imidazole-5-carboxamide], the IC50 at A2B receptors was under 100 nM; at human A2A receptor it was under 100 nM; on human A1 receptor, under 1000 nM.
As for `COc1ccc(-c2cccc(F)c2)c2ncc(NC(=O)N3CCC(C)(O)CC3)nc12` [compound 62], the IC50 is over 1000 nM at A2B receptors, under 100 nM on human A2A receptor and under 1000 nM at human A1 receptor.
For `COc1ccc(C2=CCOCC2)c2ncc(NC(=O)c3cnc(C)o3)nc12` [compound 132, N-[5-(3,6-dihydro-2H-pyran-4-yl)-8-methoxyquinoxalin-2-yl]-2-methyl-1,3-oxazole-5-carboxamide] the same measures were under 100 nM, under 10 nM and under 1000 nM.
For `COc1ccc(C2=CCOCC2)c2ncc(NC(=O)C3(N)CC3)nc12` [compound 137, 1-amino-N-[5-(3,6-dihydro-2H-pyran-4-yl)-8-methoxyquinoxalin-2-yl]cyclopropane-1-carboxamide] the same measures were over 1000 nM, under 10 nM and under 1000 nM.
For `COc1ccc(C2=CCOCC2)c2ncc(NC(=O)c3ncc(C4CCOC4)s3)nc12` (centres unmarked) [compound 140, N-[5-(3,6-dihydro-2H-pyran-4-yl)-8-methoxyquinoxalin-2-yl]-5-(oxolan-3-yl)-1,3-thiazole-2-carboxamide] the same measures were under 100 nM, under 10 nM and under 1000 nM.
With `COc1ccc(-c2cnn(C3CN(C(=O)OC(C)(C)C)C3)c2)c2ncc(NC(=O)N3CCC(C)(O)CC3)nc12` [compound 116, tert-butyl 3-(4-{2-[(4-hydroxy-4-methylpiperidine-1-carbonyl)amino]-8-methoxyquinoxalin-5-yl}-1H-pyrazol-1-yl)azetidine-1-carboxylate], the IC50 was over 1000 nM on A2B receptors, under 100 nM on human A2A receptor and under 1000 nM at human A1 receptor.
For `COc1ccc(-c2ccccc2)c2ncc(NC(=O)c3cnc[nH]3)nc12` [compound 160, N-(8-methoxy-5-phenylquinoxalin-2-yl)-1H-imidazole-5-carboxamide], in that order: under 100 nM, under 100 nM and over 1000 nM.
Turning to `COc1ccc(C2=CCOCC2)c2ncc(NC(=O)c3cnn(C)c3)nc12` [compound 135, N-[5-(3,6-dihydro-2H-pyran-4-yl)-8-methoxyquinoxalin-2-yl]-1-methyl-1H-pyrazole-4-carboxamide], the IC50 on A2B receptors was under 100 nM; at human A2A receptor it was under 10 nM; on human A1 receptor it was under 100 nM.

The values are drawn from US11192899B2 (MERCK PATENT GMBH, priority 2017, dated 2021).
